# According to US20140235705A1, “FORMULATIONS OF THIOPHENE COMPOUNDS” (Vertex Pharmaceuticals Incorporated, priority 2011, published 2014):
# Structures can show the parent of a compound that is named as a salt.
# Test: Solubility (Cs) of Compound (1) solid forms in FESSIF
# Assay type: physicochemical
# Settings: FESSIF (fed state simulated intestinal fluid)
# Text: Simulated human intestinal media suitable for the invention can be found in the art, for example, those described in Jantratid, et al., “Dissolution Media Simulating Conditions in the Proximal Human Gastrointestinal Tract: An Update,” Pharmaceutical Research, 25(7), 2008. In one embodiment, a human fed state simulated intestinal fluid ([…]) is employed in the invention. A typical […] includes sodium hydroxide, citric acid, sodium chloride, sodium taurocholate, and lecithin (L-Alpha-Phosphatidyl Choline). A specific example is described in Example 9 below. […] [table]
row,solubility of Compound (1) in FESSIF,SMILES
1,0.9 mg/mL,"CC(C)(C)C#Cc1cc(N(C(=O)[C@H]2CC[C@H](C)CC2)[C@H]2CC[C@H](O)CC2)c(C(=O)O)s1 [Form A of Compound (1), 5-(3,3-Dimethyl-but-1-ynyl)-3-[(trans-4-hydroxy-cyclohexyl)-(trans-4-methyl-cyclohexanecarbonyl)-amino]-thiophene-2-carboxylic acid]"
2,0.825 mg/mL,"CC(C)(C)C#Cc1cc(N(C(=O)[C@H]2CC[C@H](C)CC2)[C@H]2CC[C@H](O)CC2)c(C(=O)O)s1 [Form M of Compound (1), 5-(3,3-Dimethyl-but-1-ynyl)-3-[(trans-4-hydroxy-cyclohexyl)-(trans-4-methyl-cyclohexanecarbonyl)-amino]-thiophene-2-carboxylic acid]"
3,2.6 mg/mL,"CC(C)(C)C#Cc1cc(N(C(=O)[C@H]2CC[C@H](C)CC2)[C@H]2CC[C@H](O)CC2)c(C(=O)O)s1 [tromethamine salt of Compound (1), 5-(3,3-Dimethyl-but-1-ynyl)-3-[(trans-4-hydroxy-cyclohexyl)-(trans-4-methyl-cyclohexanecarbonyl)-amino]-thiophene-2-carboxylic acid]"
